# Experimental data from patent US20100113584A1, “NOVEL USE OF (-)-EPIGALLOCATECHIN GALLATE” (priority 2007, published 2010).
# Assays:
# [1] = system: skeletal muscle fibers of medial gastrocnemius muscle; test: Fiber type quantification in medial gastrocnemius muscle (immune-histochemistry, cytochrome oxidase staining); assay type: in vivo, mice; conditions: 2 months
# Description: (§1) Male C57BL/6J mice (5 weeks old) were purchased from Charles River (Sulzfeld, Germany). All mice initially received a high-fat diet (Kliba#2154, Provimi Kliba AG, Kaiseraugst, Switzerland) for 3 months. Thereafter, mice were randomly assigned to 5 groups. • Group 1: Low-fat diet, restricted to cage normal activity (Low fat sedentary, n=11) • Group 2: High-fat diet, restricted to cage normal activity (High fat sedentary, n=11) • Group 3: High-fat diet containing 0.5% w/w EGCG, restricted to cage normal activity (High fat+EGCG sedentary, n=10) • Group 4: High-fat diet, free access to running wheel (High fat exercise, n=10) • Group 5: High-fat diet containing 0.5% w/w EGCG, free access to running wheel (High fat+EGCG exercise, n=10) The duration of the treatment was 2 months. During this period all mice received food and water ad libitum. Mice in groups 4 and 5 had unlimited access to running wheels (Technical & Scientific Equipment GmbH, Bad Homburg, Germany). Daily voluntary running wheel activity was monitored. At the end of the treatment period, maximal running performance on a rodent treadmill (Technical & Scientific Equipment GmbH, Bad Homburg, Germany) was determined. The Gastrocnemius muscles were excised, frozen in liquid nitrogen and stored at −80° C. for later quantification of the fiber type. In the medial gastrocnemius, skeletal muscle fibers were quantified as Type I, Type IIA, Type D/X, Type IIB by immune-histochemistry utilizing fiber specific antibodies and by histochemistry using a cytochrome oxidase staining.
# [2] = system: C57BL/6J mice; test: Daily voluntary running wheel activity of mice on high-fat diet; assay type: in vivo; conditions: male C57BL/6J mice, high-fat diet containing 0.5% w/w EGCG, free access to running wheel, 2 months; P<0.004 vs high-fat diet alone
# Description: as §1, with “During this period all mice received food and water ad libitum. Mice in groups 4 and 5 had unlimited access to running wheels (Technical & Scientific Equipment GmbH, Bad Homburg, Germany).” left out
# [3] = High fat + EGCG (0.5% w/w) exercise (running wheel)
# [4] = High fat + EGCG (0.5% w/w) sedentary
substance,measurement,setting,value
(−)-epigallocatechin gallate [EGCG],Percentage of Type I fibers in medial gastrocnemius muscle,[1]; [3],12.8%
same,Percentage of Type IIa fibers in medial gastrocnemius muscle,[1]; [3],54.2%
same,Percentage of Type IIb fibers in medial gastrocnemius muscle,[1]; [3],27.8%
same,Percentage of Type IId/x fibers in medial gastrocnemius muscle,[1]; [3],5.1%
same,Percentage of Type I fibers in medial gastrocnemius muscle,[1]; [4],12.5%
same,Percentage of Type IIa fibers in medial gastrocnemius muscle,[1]; [4],53.5%
same,Percentage of Type IIb fibers in medial gastrocnemius muscle,[1]; [4],28.8%
same,Percentage of Type IId/x fibers in medial gastrocnemius muscle,[1]; [4],5.2%
same,"voluntary running wheel activity, average distance run per day",[2],3140.3±43.3 m per day
